Data on nine compounds can be found in patent US12729180B2, “Functionalized Maleimides and Isomaleimides and a process for preparation thereof” (COUNCIL OF SCIENTIFIC AND INDUSTRIAL RESEARCH, priority 2021, dated 2026).

The subject of this assay is MCF-7 breast cancer cell line. Kind of assay: MTT assay against breast cancer cell line. The assay is classed as cell-based. The following applies: Homo sapiens, MCF7, 72 hours after treatment; for cytotoxicity at 100 µM / viability at 100 µM: MCF-7, 100 uM; for cytotoxicity at 100 µM / cytotoxicity at 300 µM: read-out: % Dead cells; for viability at 100 µM / viability at 300 µM: read-out: % Live cells; for cytotoxicity at 300 µM / viability at 300 µM: MCF-7, 300 uM. On the procedure: In another embodiment, the functionalized maleimides and isomaleimides of Formula (I) are useful as antimicrobials and anti-cancer agents. MTT assay of compounds of Formula (I) is summarized below in Table-1 The compounds were tested against breast cancer cell line at 100 and 300 μM concentrations and % live and % dead cells were determined.
The compounds were evaluated for anti-cancer activity by testing them against breast cancer cell lines obtained from NCCS, Pune, India. The MITT assay was carried out. The assay procedure involves reconstitution of the pre-measured MTT reagent in the assay buffer, followed by its addition to the culture system. After dissolving the formazan crystals in the solubilization solution, results can be directly read on a suitable reader.
• 1. Harvest the cells; • 2. Seed 10,000 cells in 100 μl DMEM media/well in 96-well microtiter plate in triplicate; • 3. Incubate the cells at 37° C., 5% CO2 for 24 hours to achieve morphology; • 4. Treat the cells with varying concentrations of drugs; • 5. Controls included untreated cells and cells treated with 100 uM Doxorubicin; • 6. Incubate the cells for 72 hours after treatment; • 7. Add 10 μl of MTT to each well, including controls; • 8. Wrap the plate with aluminium foil to avoid exposure to light; • 9. Return the plate to the incubator for 2 hours; • 10. Observe the cells under an inverted microscope for presence of intracellular needle-shaped, dark purple coloured precipitate; • 11. When the purple precipitate is clearly visible under the microscope, add 100 μl of solubilization solution to the wells; • 12. Stir gently on a gyratory shaker to enhance dissolution of the crystals; • 13. Read the absorbance on a spectrophotometer or an ELISA reader at 570 nm with a reference wavelength higher than 650 nm.
In general terms: Tetrazolium dyes change colour on reduction, which living cells bring about.

Each structure is given as a SMILES string.

As for `CCOC(=O)CC1=C(Cc2c3ccccc3cc3ccccc23)C(=O)O/C1=N\C1CCC(C)CC1` (stereo not drawn) [Compound 3k, Ethyl (Z)-2-(4-(anthracen-9-ylmethyl)-2-((4-methylcyclohexyl)imino)-5-oxo-2,5-dihydrofuran-3-yl)acetate], the cytotoxicity at 100 µM is 27.4%, the viability at 100 µM was found to be 72.5%, the cytotoxicity at 300 µM was determined as 33% and the viability at 300 µM worked out at 67%.
Take `CCOC(=O)CC1=C(Cc2ccc(Cl)cc2)C(=O)O/C1=N\C1CCC(C)CC1` (stereo not drawn) [Compound 3e, Ethyl (Z)-2-(4-(4-chlorobenzyl)-2-((4-methylcyclohexyl)imino)-5-oxo-2,5-dihydrofuran-3-yl)acetate]: the cytotoxicity at 100 µM is 45.3%, the viability at 100 µM worked out at 54.7%, the cytotoxicity at 300 µM was 53.7% and the viability at 300 µM is 46.3%.
For the compound `CCOC(=O)CC1=C(Cc2ccc3ccccc3c2)C(=O)O/C1=N\C1CCC(C)CC1` (stereo not drawn) [Compound 3j, Ethyl (Z)-2-(2-((4-methylcyclohexyl)imino)-4-(naphthalen-2-ylmethyl)-5-oxo-2,5-dihydrofuran-3-yl)acetate], the cytotoxicity at 100 µM stood at 51.7%, the viability at 100 µM was determined as 48.3%, the cytotoxicity at 300 µM stood at 59.7% and the viability at 300 µM amounted to 40.3%.
With `CCOC(=O)CC1=C(Cc2cccc(C(F)(F)F)c2)C(=O)O/C1=N\C1CCC(C)CC1` (stereo not drawn) [Compound 3h, Ethyl (Z)-2-(2-((4-methylcyclohexyl)imino)-5-oxo-4-(3-(trifluoromethyl)benzyl)-2,5-dihydrofuran-3-yl)acetate], the cytotoxicity at 100 µM was 49.1%, the viability at 100 µM turned out to be 50.9%, the cytotoxicity at 300 µM came to 60.9% and the viability at 300 µM was 39.1%.
In the same order, the values of `CCOC(=O)CC1=C(Cc2cccc(Oc3ccccc3)c2)C(=O)O/C1=N\C1CCC(C)CC1` (stereo not drawn) [Compound 3c, Ethyl (Z)-2-(2-((4-methylcyclohexyl)imino)-5-oxo-4-(3-phenoxybenzyl)-2,5-dihydrofuran-3-yl) acetate] are 32.9%, 67.1%, 34.8% and 65.2%.
As to `CCOC(=O)CC1=C(Cc2cc(OC)ccc2OC)C(=O)O/C1=N\C1CCC(C)CC1` (stereo not drawn) [Compound 3d, Ethyl (Z)-2-(4-(2,5-dimethoxybenzyl)-2-((4-methylcyclohexyl)imino)-5-oxo-2,5-dihydrofuran-3-yl)acetate], the cytotoxicity at 100 µM came to 32.9%, the viability at 100 µM came to 67.1%, the cytotoxicity at 300 µM was 54.4% and the viability at 300 µM worked out at 45.6%.
For the compound `CCOC(=O)CC1=C(C(c2ccccc2)c2ccccc2)C(=O)O/C1=N\C1CCC(C)CC1` (stereo not drawn) [Compound 3p, Ethyl (Z)-2-(4-benzhydryl-2-((4-methylcyclohexyl)imino)-5-oxo-2,5-dihydrofuran-3-yl)acetate], the cytotoxicity at 100 µM was determined as 43.5%, the viability at 100 µM came to 56.5%, the cytotoxicity at 300 µM came to 51.1% and the viability at 300 µM was determined as 48.9%.
As for `CCOC(=O)CC1=C(Cc2ccccc2F)C(=O)O/C1=N\C1CCC(C)CC1` (stereo not drawn) [Compound 3f, Ethyl (Z)-2-(4-(2-fluorobenzyl)-2-((4-methylcyclohexyl)imino)-5-oxo-2,5-dihydrofuran-3-yl)acetate], the cytotoxicity at 100 µM was determined as 26.6%, the viability at 100 µM is 73.4%, the cytotoxicity at 300 µM stood at 49.6% and the viability at 300 µM is 50.4%.
On to `CCOC(=O)CC1=C(Cc2ccc(F)c(F)c2)C(=O)O/C1=N\C1CCC(C)CC1` (stereo not drawn) [Compound 3g, Ethyl (Z)-2-(4-(3,4-difluorobenzyl)-2-((4-methylcyclohexyl)imino)-5-oxo-2,5-dihydrofuran-3-yl)acetate], for which the cytotoxicity at 100 µM was 26.4%, the viability at 100 µM amounted to 73.6%, the cytotoxicity at 300 µM stood at 47.2% and the viability at 300 µM is 52.8%.
